Reference: US20260138961A1, “MODULATORS OF MITOCHONDRIAL DNA REPLICATION” (Pretzel Therapeutics, Inc., priority 2022, published 2026)

Biological target: T1, wild type human POLγ (POLγA:WT) (Homo sapiens, UniProt P54098)
T1 sequence (P54098 1-1239): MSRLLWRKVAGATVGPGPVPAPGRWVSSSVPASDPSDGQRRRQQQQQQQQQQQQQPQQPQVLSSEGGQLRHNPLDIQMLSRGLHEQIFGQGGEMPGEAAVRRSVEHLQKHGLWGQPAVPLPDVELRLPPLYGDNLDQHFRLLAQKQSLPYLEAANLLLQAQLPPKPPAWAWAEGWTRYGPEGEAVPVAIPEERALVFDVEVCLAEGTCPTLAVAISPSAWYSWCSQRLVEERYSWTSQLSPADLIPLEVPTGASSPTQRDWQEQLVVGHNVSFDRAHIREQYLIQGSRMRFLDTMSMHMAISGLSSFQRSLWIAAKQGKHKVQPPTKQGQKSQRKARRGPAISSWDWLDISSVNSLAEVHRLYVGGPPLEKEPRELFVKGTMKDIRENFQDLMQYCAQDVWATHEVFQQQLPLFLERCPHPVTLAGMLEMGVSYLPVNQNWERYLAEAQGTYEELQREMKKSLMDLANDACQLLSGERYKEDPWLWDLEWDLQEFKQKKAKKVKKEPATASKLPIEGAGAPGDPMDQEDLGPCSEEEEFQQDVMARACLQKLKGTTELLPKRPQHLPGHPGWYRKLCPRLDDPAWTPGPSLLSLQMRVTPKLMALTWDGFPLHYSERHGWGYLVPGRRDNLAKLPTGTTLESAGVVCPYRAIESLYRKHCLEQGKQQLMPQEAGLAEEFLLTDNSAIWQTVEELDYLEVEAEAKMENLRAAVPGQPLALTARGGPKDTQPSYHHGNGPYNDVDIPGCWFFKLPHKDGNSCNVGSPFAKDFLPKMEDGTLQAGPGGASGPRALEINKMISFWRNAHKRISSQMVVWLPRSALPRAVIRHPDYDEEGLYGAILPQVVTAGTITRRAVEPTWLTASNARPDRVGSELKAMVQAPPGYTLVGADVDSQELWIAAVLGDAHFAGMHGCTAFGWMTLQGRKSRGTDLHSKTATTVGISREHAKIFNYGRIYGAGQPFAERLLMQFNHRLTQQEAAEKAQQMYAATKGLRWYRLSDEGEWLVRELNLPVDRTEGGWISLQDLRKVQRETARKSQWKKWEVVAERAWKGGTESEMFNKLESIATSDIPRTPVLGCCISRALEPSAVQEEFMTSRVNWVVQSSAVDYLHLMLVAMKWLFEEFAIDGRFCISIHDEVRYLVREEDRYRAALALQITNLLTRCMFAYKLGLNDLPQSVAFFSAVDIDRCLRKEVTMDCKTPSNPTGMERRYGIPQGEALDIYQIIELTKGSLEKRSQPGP
T1 sequence (Q9UHN1 1-485 partner): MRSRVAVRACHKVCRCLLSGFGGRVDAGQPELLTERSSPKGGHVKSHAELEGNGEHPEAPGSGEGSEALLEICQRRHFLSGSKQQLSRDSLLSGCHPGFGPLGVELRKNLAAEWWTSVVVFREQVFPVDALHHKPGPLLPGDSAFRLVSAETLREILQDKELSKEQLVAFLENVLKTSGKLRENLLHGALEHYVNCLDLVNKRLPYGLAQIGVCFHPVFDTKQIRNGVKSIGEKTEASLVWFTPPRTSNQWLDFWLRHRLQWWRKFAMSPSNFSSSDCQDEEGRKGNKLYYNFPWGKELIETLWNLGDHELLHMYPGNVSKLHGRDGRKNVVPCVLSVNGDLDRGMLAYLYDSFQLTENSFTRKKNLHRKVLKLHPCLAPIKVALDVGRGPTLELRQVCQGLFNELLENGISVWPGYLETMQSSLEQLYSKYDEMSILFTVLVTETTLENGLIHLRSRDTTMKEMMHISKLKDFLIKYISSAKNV
Assay: DNA polymerization assay, wild type POLγ
Type: biochemical
Conditions: 0.1 μM dNTP, read-out: WT AC50 (μM) at 0.1 μM

| AC50 [µM] | Compound |
| --- | --- |
| > 100 | Cc1csc(-c2ccccc2NS(=O)(=O)c2cc(C)c(Cl)cc2C)n1 [Example 80, 4-chloro-2,5-dimethyl-N-(2-(4-methylthiazol-2-yl)phenyl)benzenesulfonamide] |

Same assay, conditions: 100 μM dNTP, read-out: WT AC50 (μM) at 100 μM

| Compound | AC50 [µM] |
| --- | --- |
| Cc1cc(S(=O)(=O)Nc2csc(-c3ccccc3)n2)c(C)cc1Cl [Example 81, 4-chloro-2,5-dimethyl-N-(2-phenylthiazol-4-yl)benzenesulfonamide] | 0.2 |
| Cc1cnc(-c2ccc(NS(=O)(=O)c3cc(C)c(Cl)cc3C)cc2)s1 [Example 83, 4-chloro-2,5-dimethyl-N-(4-(5-methylthiazol-2-yl)phenyl)benzenesulfonamide] | 6 |
| Cc1cc(S(=O)(=O)Nc2cccc(-c3ncc(CN(C)C)s3)c2)c(C)cc1Cl [Example 87, 4-chloro-N-(3-(5-((dimethylamino)methyl)thiazol-2-yl)phenyl)-2,5-dimethylbenzenesulfonamide] | 4 |
| Cc1cc(S(=O)(=O)Nc2cccc(-c3ncc(C4CC4)s3)c2)c(C)cc1Cl [Example 76, 4-chloro-N-(3-(5-cyclopropylthiazol-2-yl)phenyl)-2,5-dimethylbenzenesulfonamide] | 0.4 |

More lines, now with the values ahead:

| AC50 [µM] | Compound |
| --- | --- |
| 2 | Cc1nc2ccc(NS(=O)(=O)c3cc(C)c(Cl)cc3C)cc2s1 [Example 73, 4-chloro-2,5-dimethyl-N-(2-methylbenzo[d]thiazol-6-yl)benzenesulfonamide] |
| 0.3 | Cc1cc(S(=O)(=O)Nc2cccc(-c3ncc(CO)s3)c2)c(C)cc1Cl [Example 89, 4-chloro-N-(3-(5-(hydroxymethyl)thiazol-2-yl)phenyl)-2,5-dimethylbenzenesulfonamide] |
| 4 | Cc1cc(S(=O)(=O)Nc2ccc3ccn(C)c3c2)c(C)cc1Cl [Example 72, 4-chloro-2,5-dimethyl-N-(1-methyl-1H-indol-6-yl)benzenesulfonamide] |
